Reference: the supplement of paper PMC8671470

Legend:
Test in all cases: cell viability (% survival relative to DMSO control); higher = less cytotoxic
Conditions in all cases: 72 h
HL-60 = tested on: HL-60
Procedure, shortened: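 HL-60 cells grown in RPMI 1640 with 10% FBS were rescreened against the full library in 384-well plates, in duplicate, at five tenfold concentrations from 1 to 10,000 nM, alongside DMSO or 100 nM of one of three metabolic inhibitors for 72 h at 37 °C, 5% CO2. Reference wells contained DMSO or 10 μM proteasome inhibitor. Viability was read with CellTiter-Glo and normalised to these reference wells, and where reported, area under the curve was taken from four-parameter log-logistic fits in drc and PharmacoGx.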

[1] = tested on: myeloid leukemia patient primary cells Pat.10
Procedure, shortened: (§1)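 Mononuclear cells from patients with AML or CML were thawed, purified on Ficoll and placed in RPMI 1640 with 10% FBS at 10,000 cells/well on 384-well plates. The plates came pre-printed with 70 compounds at five tenfold concentrations spanning 1–10,000 nM, in duplicate, and cells were exposed for 72 h. CellTiter-Glo gave viability, scaled between DMSO wells and wells with 10 μM proteasome inhibitor. Where reported, area under the curve was obtained from log-logistic fits with four parameters using the drc and PharmacoGx R packages.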

[2] = tested on: myeloid leukemia patient primary cells Pat.15
Procedure, shortened: as §1

[3] = tested on: myeloid leukemia patient primary cells Pat.2
Procedure, shortened: as §1

[4] = tested on: myeloid leukemia patient primary cells Pat.11
Procedure, shortened: as §1

[5] = tested on: myeloid leukemia patient primary cells Pat.9
Procedure, shortened: as §1

[6] = tested on: myeloid leukemia patient primary cells Pat.6
Procedure, shortened: as §1

[7] = tested on: myeloid leukemia patient primary cells Pat.4
Procedure, shortened: as §1

[8] = tested on: myeloid leukemia patient primary cells Pat.8
Procedure, shortened: as §1

[9] = tested on: myeloid leukemia patient primary cells Pat.5
Procedure, shortened: as §1

[10] = tested on: myeloid leukemia patient primary cells Pat.12
Procedure, shortened: as §1

[11] = tested on: myeloid leukemia patient primary cells Pat.3
Procedure, shortened: as §1

[12] = tested on: myeloid leukemia patient primary cells Pat.13
Procedure, shortened: as §1

[13] = tested on: myeloid leukemia patient primary cells Pat.1
Procedure, shortened: as §1

[14] = tested on: myeloid leukemia patient primary cells Pat.14
Procedure, shortened: as §1

[15] = tested on: myeloid leukemia patient primary cells Pat.7
Procedure, shortened: as §1

CN1CCN(CCCN2c3ccccc3Sc3ccc(C(F)(F)F)cc32)CC1 [Trifluoperazine]
cell viability [%], HL-60
Conditions	0.001 µM	0.01 µM	0.1 µM	1 µM	10 µM
co-treatment: AZD3965 100 nM	101	100	97.8	101	81.7
co-treatment: DMSO vehicle	101.2	103	102	102	90.6
co-treatment: GSK2194069 100 nM	94	101	96	101	70.4
co-treatment: pictilisib 100 nM	97	95.9	108	97.2	47.7

cell viability [%]
Conditions	1 nM	10 nM	100 nM	1000 nM	10000 nM
[1]	55.5	91.7	70.3	13.3	9.9
[2]	98.2	91.9	> 100	78.4	45.9
[3]	> 100	> 100	> 100	75.6	48.6
[4]	> 100	100	99.9	77.4	12
[5]	79.5	52.7	65.3	0.773	1.6
[6]	98.8	94.2	97.8	63.5	23.8
[7]	84.5	98.7	97.6	75.1	15.8
[8]	80	88.9	91.3	69.8	41.6
[9]	99.9	49.2	88	0.912	3.33
[10]	95.7	89.5	95.9	87	38.3
[11]	99.7	80.7	65.1	11.8	0.738
[12]	90.5	90.8	99.3	56.4	39.1
[13]	97.8	93.7	94.1	56	19.4
[14]	89.2	85.5	86.6	26.5	1.65
[15]	87.1	68.6	42.7	< 0	< 0
